Data: the supplement of paper PMC10307832

Tests used:
Experiment in all cases: relative viability (nuclei count vs DMSO), 5 days (fraction); higher = more cells survive
CAP-232 = compound: C[C@H]([C@@H](C(=O)N)NC(=O)[C@@H]1CSSC[C@@H](C(=O)N[C@H](C(=O)N[C@@H](C(=O)N[C@H](C(=O)N1)CCCCN)CC2=CNC3=CC=CC=C32)CC4=CC=C(C=C4)O)NC(=O)[C@@H](CC5=CC=CC=C5)N)O [CAP-232]
In short: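 Only plates meeting two conditions passed: control CV below 25% and at least one doubling. Lung cancer cell lines, kept overnight at 37 °C in 1536-well plates, were pinned with five library-drug doses (not always all listed) √10 apart on vehicle-anchored plates and grown 5 days without medium change. A one-step fix, permeabilisation and Hoechst stain preceded 4× imaging and MetaXpress nuclear counting. Viability equals treated-well nuclei divided by vehicle-well nuclei, as the median over plates.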

CAP-232 + Navitoclax = compound: C[C@H]([C@@H](C(=O)N)NC(=O)[C@@H]1CSSC[C@@H](C(=O)N[C@H](C(=O)N[C@@H](C(=O)N[C@H](C(=O)N1)CCCCN)CC2=CNC3=CC=CC=C32)CC4=CC=C(C=C4)O)NC(=O)[C@@H](CC5=CC=CC=C5)N)O [CAP-232] + CC1(C)CCC(c2ccc(Cl)cc2)=C(CN2CCN(c3ccc(C(=O)NS(=O)(=O)c4ccc(N[C@H](CCN5CCOCC5)CSc5ccccc5)c(S(=O)(=O)C(F)(F)F)c4)cc3)CC2)C1 [Navitoclax] (partner 0.5 µM)
In short: (§1)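 Medians of duplicate plates are given as relative viability. That measure is the nuclei count in treated wells divided by the count in vehicle wells. Counts were taken on 4× images of lung cancer cell lines in 1536-well plates, 5 days after pin-tool dosing the day after seeding with one drug alone or a fixed anchor-drug dose plus five library-drug doses (not always all listed) in √10 steps.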

CAP-232 + OSI-027 = compound: C[C@H]([C@@H](C(=O)N)NC(=O)[C@@H]1CSSC[C@@H](C(=O)N[C@H](C(=O)N[C@@H](C(=O)N[C@H](C(=O)N1)CCCCN)CC2=CNC3=CC=CC=C32)CC4=CC=C(C=C4)O)NC(=O)[C@@H](CC5=CC=CC=C5)N)O [CAP-232] + COc1cccc2cc(-c3nc([C@H]4CC[C@H](C(=O)O)CC4)n4ncnc(N)c34)[nH]c12 [OSI-027] (partner 0.5 µM)
In short: as §1

CAP-232 + Pictilisib = compound: C[C@H]([C@@H](C(=O)N)NC(=O)[C@@H]1CSSC[C@@H](C(=O)N[C@H](C(=O)N[C@@H](C(=O)N[C@H](C(=O)N1)CCCCN)CC2=CNC3=CC=CC=C32)CC4=CC=C(C=C4)O)NC(=O)[C@@H](CC5=CC=CC=C5)N)O [CAP-232] + CS(=O)(=O)N1CCN(Cc2cc3nc(-c4cccc5[nH]ncc45)nc(N4CCOCC4)c3s2)CC1 [Pictilisib] (partner 1 µM)
In short: as §1

CAP-232 + Decitabine = compound: C[C@H]([C@@H](C(=O)N)NC(=O)[C@@H]1CSSC[C@@H](C(=O)N[C@H](C(=O)N[C@@H](C(=O)N[C@H](C(=O)N1)CCCCN)CC2=CNC3=CC=CC=C32)CC4=CC=C(C=C4)O)NC(=O)[C@@H](CC5=CC=CC=C5)N)O [CAP-232] + Nc1ncn([C@H]2C[C@H](O)[C@@H](CO)O2)c(=O)n1 [Decitabine] (partner 2 µM)
In short: as §1

Cell Line | relative viability (CAP-232; 0.4 µM) | relative viability (CAP-232; 1.265 µM) | relative viability (CAP-232; 4 µM) | relative viability (CAP-232; 12.65 µM) | relative viability (CAP-232 + Navitoclax; first compound 0.4 µM) | relative viability (CAP-232 + Navitoclax; first compound 1.265 µM) | relative viability (CAP-232 + Navitoclax; first compound 4 µM) | relative viability (CAP-232 + Navitoclax; first compound 12.65 µM) | relative viability (CAP-232 + OSI-027; first compound 0.4 µM) | relative viability (CAP-232 + OSI-027; first compound 1.265 µM) | relative viability (CAP-232 + OSI-027; first compound 4 µM) | relative viability (CAP-232 + OSI-027; first compound 12.65 µM) | relative viability (CAP-232 + Pictilisib; first compound 0.4 µM) | relative viability (CAP-232 + Pictilisib; first compound 1.265 µM) | relative viability (CAP-232 + Pictilisib; first compound 4 µM) | relative viability (CAP-232 + Pictilisib; first compound 12.65 µM) | relative viability (CAP-232 + Decitabine; first compound 0.4 µM) | relative viability (CAP-232 + Decitabine; first compound 1.265 µM) | relative viability (CAP-232 + Decitabine; first compound 4 µM) | relative viability (CAP-232 + Decitabine; first compound 12.65 µM)
NCI-H1755 | 1.04 | 0.964 | 1.1 | 0.918 | 0.6 | 1.1 | 1.1 | 0.949 | 0.699 | 0.713 | 0.754 | 0.653 | 0.379 | 0.402 | 0.452 | 0.415 | 0.734 | 0.738 | 0.761 | 0.723
NCI-H1792 | 1.44 | 0.775 | 0.878 | 0.777 | 1.2 | 0.638 | 0.656 | 0.452 | 0.996 | 0.76 | 0.875 | 0.832 | 0.26 | 0.323 | 0.3 | 0.204 | 0.636 | 0.54 | 0.555 | 0.365
NCI-H1793 | 1.01 | 0.911 | 0.869 | 0.917 | 0.412 | 0.346 | 0.329 | 0.361 | 0.282 | 0.253 | 0.196 | 0.25 | 0.334 | 0.284 | 0.31 | 0.283 | 0.473 | 0.406 | 0.389 | 0.494
NCI-H1915 | 1.09 | 0.948 | 1.08 | 1.07 | 0.825 | 0.75 | 0.771 | 0.766 | 0.566 | 0.601 | 0.672 | 0.325 | 0.878 | 0.852 | 1.01 | 0.914 | 0.272 | 0.227 | 0.269 | 0.25
NCI-H1944 | 0.921 | 0.972 | 1.03 | 0.969 | 1.06 | 1.01 | 1.04 | 0.98 | 0.379 | 0.388 | 0.403 | 0.392 | 0.371 | 0.33 | 0.394 | 0.354 | 0.426 | 0.424 | 0.363 | 0.424
NCI-H1975 | 1.11 | 0.86 | 1.02 | 0.72 | 1.24 | 1.1 | 1.28 | 0.853 | 0.856 | 0.646 | 0.91 | 0.487 | 0.262 | 0.261 | 0.313 | 0.191 | 0.399 | 0.39 | 0.406 | 0.207
NCI-H1993 | 0.954 | 0.934 | 1.09 | 0.945 | 0.961 | 0.864 | 1.15 | 0.907 | 0.604 | 0.539 | 0.544 | 0.492 | 0.887 | 0.935 | 0.977 | 0.768 | 0.569 | 0.676 | 0.608 | 0.559
